Data: ChEMBL document CHEMBL3397010, “Design, synthesis, and biological evaluation of air-stable nafuredin-γ analogs as complex I inhibitors” (Bioorg Med Chem, 2015)

Assay: Inhibition of electron transport protein complex 1 in Ascaris suum mitochondria assessed as reduction in rhodoquinol-fumarate reductase activity by measuring NADH oxidation using NADH, sodium fumarate and decyl-rhodoquinone

SMILES	IC50 [nM]
CC[C@H](C)CC/C=C(\C)C[C@@H](C)CC/C=C/[C@@H](O)[C@]1(C)CCC(=O)O1	550
CC(C)=CCC/C(C)=C/CC/C(C)=C/CC[C@@H](O)[C@]1(C)CCC(=O)O1	820
C/C(=C\CCC(C)C)CCCC/C=C/[C@@H](O)[C@]1(C)CCC(=O)O1	340
C/C(=C\CCC(C)C)C[C@@H](C)CC/C=C/[C@@H](O)[C@]1(C)CCC(=O)O1	300
CC(C)=CCC/C(C)=C/CC/C(C)=C/CC[C@@H](O)[C@]1(C)CCCO1	500
CC[C@H](C)/C=C/C=C(\C)C[C@@H](C)/C=C/C=C/[C@@H](O)[C@]1(C)C=C(O)C(=O)O1	6
CCc1ccc2ccc(Cc3cccc(/C=C/[C@@H](O)[C@]4(C)CCC(=O)O4)c3)cc2c1	550
